Reference: US7867978B2, “Methods and compositions for treating neurological disorders” (The University of Kentucky Research Foundation, priority 2007, dated 2011)
Entries after “also recorded” stand apart in the source; their conditions may differ. Each block holds one molecule with its values, some of them ahead of it. Ends that are not written are not given here.

Experiments:
[1] = test system: iNOS; test: iNOS activity in cell lines stably transfected with Kalirin-7, iNOS induced by iNOS plasmid, LPS or LPS plus Aβ1-42; format: cell-based; conditions: for iNOS activity: AtT20, SH-SY5Y, Neuro2A and C6 cell lines, iNOS raised by iNOS plasmid, LPS, or LPS plus Aβ1-42, Canavanine or L-NAME 10 mM; for Aβ1-42-augmented iNOS activity: LPS plus Aβ1-42 treated cell lines
Description: Assays for iNOS and NOS—The hippocampal and cerebellar specimens and the transfected cells were homogenized in 50 mM Tris HCl (pH 7.4), 1 mM EDTA, 0.1 mM tetrahydrobiopterin, 2 mM dithiothreitol, 10% (v/v) glycerol, aprotinin (25 μg/ml), leupeptin (25 μg/ml), 100 μM PMSF, 10 μM FMN, and 10 μM FAD. The homogenates were centrifuged at 2,000×g for 15 min, and the supernatants were assayed for iNOS. iNOS was also assayed in the presence of 10 mM Canavanine (Sigma) or L-NAME (Sigma). The collective activity of NOS (including eNOS, nNOS and iNOS) was determined in an identical fashion to iNOS activity, but in the presence of 1.25 mM Ca^2+.
Preparation of Aβ1-42 peptide—One mM of A β1-42 (Biosource) was prepared in a capped vial at 37° C. for 5 days, and stored at −20° C. The frozen stock solution was diluted and used at the final concentration of 10 μM.
Cell culture and transfection—AtT-20 cells (ATCC# CCL-89), SH-SY5Y cells (ATCC# CRL-2266), C6 cells (ATCC# CCL-107) and Neuro-2A cells (ATCC # CCL-131) were cultured according to the supplier's instructions. Each cell line was grown in a 25 cm^2 flask, stably transfected with pcDNA4 vector carrying Kalirin-7 or pcDNA3 carrying iNOS, using SuperFect transfection reagents (Qiagen) following the manufacture's instructions. Stable cell lines were selected using 0.5 mg/ml of G-418 for pcDNA3 or 0.12 μg/ml of zeocin for pcDNA4.
To induce the iNOS activity, cell lines were transfected with iNOS in pcDNA3 or stimulated with 3 μg/ml of lipopolysaccharides (LPS) for 12-16 h (27) or 10 μM A β1-42 peptide for 18 h. Two different approaches of double transfection with Kalirin-7 and iNOS were used to determine the effects of Kalirin-7 on iNOS. The cell line stably expressing Kalirin-7 was transiently transfected with iNOS, and conversely, the cell line stably expressing iNOS was transiently transfected with increasing amounts of pcDNA4 carrying Kalirin-7 or Kalirin domains.

[2] = target: T1, iNOS (Homo sapiens, UniProt P35228); test: iNOS activity in AtT-20 cells stably expressing iNOS, transiently transfected with Kalirin-7, Kalirin domain or section plasmids; format: cell-based, mouse
T1 construct: expressed in transfected cells
T1 sequence (P35228 whole entry, species assumed, the tested form may be a part): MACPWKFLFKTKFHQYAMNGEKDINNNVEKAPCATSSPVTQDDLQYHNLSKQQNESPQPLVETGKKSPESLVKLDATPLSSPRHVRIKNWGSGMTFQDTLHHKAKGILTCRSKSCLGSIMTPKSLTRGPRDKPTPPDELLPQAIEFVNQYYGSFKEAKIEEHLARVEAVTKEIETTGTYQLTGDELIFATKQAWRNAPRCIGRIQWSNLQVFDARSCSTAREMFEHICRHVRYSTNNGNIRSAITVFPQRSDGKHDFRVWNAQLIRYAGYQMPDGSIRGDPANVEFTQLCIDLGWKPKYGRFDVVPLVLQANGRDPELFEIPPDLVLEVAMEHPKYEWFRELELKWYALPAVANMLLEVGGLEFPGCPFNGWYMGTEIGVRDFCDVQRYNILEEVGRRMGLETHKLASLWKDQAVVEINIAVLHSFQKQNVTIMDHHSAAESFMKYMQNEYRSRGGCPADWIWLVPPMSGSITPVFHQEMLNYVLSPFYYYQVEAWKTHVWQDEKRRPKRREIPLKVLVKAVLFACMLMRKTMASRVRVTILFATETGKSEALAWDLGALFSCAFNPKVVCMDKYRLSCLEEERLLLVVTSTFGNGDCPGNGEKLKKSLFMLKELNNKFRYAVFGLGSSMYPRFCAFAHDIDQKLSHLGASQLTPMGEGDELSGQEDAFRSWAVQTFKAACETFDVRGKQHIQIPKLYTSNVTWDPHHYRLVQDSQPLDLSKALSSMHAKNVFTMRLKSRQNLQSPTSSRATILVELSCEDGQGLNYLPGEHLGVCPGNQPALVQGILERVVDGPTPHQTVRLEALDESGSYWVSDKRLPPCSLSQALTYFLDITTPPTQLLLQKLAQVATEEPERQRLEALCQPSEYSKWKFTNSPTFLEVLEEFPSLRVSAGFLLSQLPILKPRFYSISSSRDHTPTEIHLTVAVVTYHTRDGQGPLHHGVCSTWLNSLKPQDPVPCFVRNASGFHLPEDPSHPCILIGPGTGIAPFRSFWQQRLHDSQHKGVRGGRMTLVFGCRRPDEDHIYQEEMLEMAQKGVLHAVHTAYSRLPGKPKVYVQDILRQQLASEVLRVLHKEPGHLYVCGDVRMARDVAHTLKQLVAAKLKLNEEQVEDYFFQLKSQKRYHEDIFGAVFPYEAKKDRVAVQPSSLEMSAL
Description: Assays for iNOS and NOS-The hippocampal and cerebellar specimens and the transfected cells were homogenized in 50 mM Tris HCl (pH 7.4), 1 mM EDTA, 0.1 mM tetrahydrobiopterin, 2 mM dithiothreitol, 10% (v/v) glycerol, aprotinin (25 μg/ml), leupeptin (25 μg/ml), 100 μM PMSF, 10 μM FMN, and 10 μM FAD. […] The collective activity of NOS (including eNOS, nNOS and iNOS) was determined in an identical fashion to iNOS activity, but in the presence of 1.25 mM Ca^2+. Cell culture and transfection-AtT-20 cells (ATCC# CCL-89), SH-SY5Y cells (ATCC# CRL-2266), C6 cells (ATCC# CCL-107) and Neuro-2A cells (ATCC # CCL-131) were cultured according to the supplier's instructions. Each cell line was grown in a 25 cm^2 flask, stably transfected with pcDNA4 vector carrying […]-7 or pcDNA3 carrying iNOS, using SuperFect transfection reagents (Qiagen) following the manufacture's instructions. Stable cell lines were selected using 0.5 mg/ml of G-418 for pcDNA3 or 0.12 μg/ml of zeocin for pcDNA4. To induce the iNOS activity, cell lines were transfected with iNOS in pcDNA3 or stimulated with 3 μg/ml of lipopolysaccharides (LPS) for 12-16 h (27) or 10 μM A β1-42 peptide for 18 h. Two different approaches of double transfection with […]-7 and iNOS were used to determine the effects of […]-7 on iNOS. The cell line stably expressing […]-7 was transiently transfected with iNOS, and conversely, the cell line stably expressing iNOS was transiently transfected with increasing amounts of pcDNA4 carrying […]-7 or […] domains.

[3] = test system: AtT-20 cells stably expressing iNOS; test: Renilla luciferase assay as transfection reference for toxic effect of plasmid DNA; format: cell-based, mouse; conditions: increasing plasmid amounts co-transfected with constant pRL-TK vector
Description: To test the putative toxic effect of high concentrations of plasmid DNA, up to 2.5 μg, the Renilla luciferase assay (Promega) was used as a transfection reference. The AtT-20 cells stably expressing iNOS were transiently transfected with a constant amount of the pRL-TK vector (Promega) carrying Renilla luciferase and increasing amounts of the Kalirin plasmid. The co-transfected cells were assayed for iNOS and luciferase following the manufacturer's instructions.

[4] = target: T1, iNOS; test: Co-immunoprecipitation of iNOS with Kalirin-7 by anti-Kalirin in co-transfected AtT-20 cells; format: binding; conditions: increasing amounts of Kalirin-7 plasmid
Description: Immunoblot and immunoprecipitation—Proteins were extracted. Brain samples were directly solubilized in 10 volume of lysis buffer (50 mM Tris HCl at pH 7.5, 120 mM NaCl, 5 mM EDTA, 1% Nonidet P-40 (0.3 mg/ml), 8 μg/ml aprotinin, 2 μg/ml pepstatin A, 2 μg/ml leupeptin, 1 mM Na3VO4, 50 mM NaF and 0.2% of SDS) using Omni 2000 homogenizer (Omni International Inc). The solubilized samples were centrifuged at 15,000×g for 10 min, the supernatants were saved, and protein concentration was measured by the Bradford method. Cultured cells were suspended in another lysis buffer consisting of 100 mM Tris HCl (pH7.5), 150 mM NaCl, 2 mM EDTA, 0.5% of Triton X-100, 1 mM PMSF, 4 μg/ml aprotinin, 1 μg/ml pepstatin A, 1 μg/ml leupeptin, 1 mM Na3VO4, 50 mM NaF and 0.2% of SDS), and processed.
An equal protein-amount of solubilized supernatants was resolved by SDS-PAGE and blotted onto polyvinylidene difluoride membrane. The membranes were incubated for 1 h in blocking solution containing 3% bovine serum albumin. The membranes were incubated for 1 h with primary antibodies diluted 1:500 in Tris-buffered saline containing 0.1% Tween 20. After washing, membranes were incubated for 1 h in 1:10,000 dilution of secondary antibodies coupled to horseradish peroxidase. […] Blots were scanned, and the band intensity was digitized and quantified using Molecular Dynamics Image Quant 5.1. […]

Molecule: N=C(N)NOCC[C@H](N)C(=O)O [Canavanine]
iNOS activity [1]: suppressed to basal levels | Aβ1-42-augmented iNOS activity [1]: attenuated

Molecule: COC(=O)[C@@H](N)CCCNC(=N)N[N+](=O)[O-] [L-NAME]
iNOS activity [1]: suppressed to basal levels | Aβ1-42-augmented iNOS activity [1]: attenuated

Molecule: Aβ1-42: amyloidogenic peptide Aβ1-42 (Biosource), used at 10 μM
iNOS activity induced by LPS treatment ([1]; LPS plus 10 μM Aβ1-42, stable cell lines): augments iNOS activity

Molecule: D2: Kalirin domain consisting of the 354 amino acid V506-Q860 sequence of SEQ ID NO:2, expressed from pcDNA4
iNOS activity ([2]; transient transfection with pcDNA4 carrying individual Kalirin-7 domains): attenuated; also recorded: most notably attenuated

suppression of iNOS versus plasmid concentration ([2]; increasing amounts of Kalirin section 8 plasmid): dependent on the concentration | iNOS suppression ([2]; transient transfection with pcDNA4 carrying individual 33 amino acid sections, compared with D2 and wild type Kalirin 7): suppressed most effectively
Molecule: KAARHLEVRIQDFVRRVEQRKLLLDMSVSFHTH (also: Flag epitope tag; listed as Homo sapiens) [section # 8]

iNOS activity ([2]; increasing amounts of pcDNA4 Kalirin-7 vector): decreased
Molecule: Kalirin-7: cytoplasmic protein of >1,660 amino acids (SEQ ID NO:2), expressed from pcDNA4 carrying the Kalirin-7 cDNA
synthesis and activity of Renilla luciferase (putative toxic effect of plasmid) [3]: did not impair | iNOS activity [1]: suppressed to basal levels | Aβ1-42-augmented iNOS activity [1]: attenuated | iNOS co-immunoprecipitated by anti-Kalirin [4]: increasing concentrations of iNOS were co-immunoprecipitated
